For orientation: IC50 means the concentration at which inhibition is half-maximal. Low readings indicate higher potency, high ones lower potency.

The structures appear in SMILES notation.

Assay [1] relates to ATXN3 transcripts containing exon 4. Nature of the assay: ATXN3 quantitative splicing assay (qPCR, E4E5 transcripts containing exon 4). Type of assay: cell-based. Conditions: Human neuroblastoma SK-N-MC cells, 24 h treatment, qPCR primers/probe E4E5. The method in brief:
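SK-N-MC neuroblastoma cells treated 24 h with compounds from 30 μM to 0.6 nM (0.3% DMSO), then lysed for cDNA synthesis. ATXN3 transcripts containing exon 4 quantified by TaqMan qPCR with E4E5 primers/probe; E8E9 set measured total ATXN3.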
On the technique in general: Quantitative PCR measures a nucleic acid by following its amplification.

In the next assay the test system is total ATXN3 protein. Nature of the assay: ATXN3 total protein assay (Mesoscale Discovery). The format is cell-based. The note with it: Human neuroblastoma SK-N-MC cells, 48 hours incubation, MSD assay. In outline:
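SK-N-MC neuroblastoma cells treated 48 hours with compound, 30 µM to 0.6 nM. Lysates assayed by MSD sandwich immunoassay with mouse capture and rabbit detection anti-ATXN3 antibodies; quantified against recombinant ATXN3 standards.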

As for `C[C@H](F)[C@H](N)Cc1sc2c(NCc3nccs3)snc2c1Br` [Compound 105, 7-[(2R,3S)-2-amino-3-fluorobutyl]-8-bromo-4-{[(1,3-thiazol-2-yl)methyl]amino}-3,6-dithia-2-azabicyclo[3.3.0]octa-1,4,7-triene], the 50% inhibitory concentration (IC50) (in assay [1]; in the assay on total ATXN3 protein) was 0.101 to 0.5 µM in each case.

Consider `C[C@@H](F)[C@H](N)Cc1sc2c(NCc3nccs3)snc2c1Br` [Compound 106, 7-[(2R,3R)-2-amino-3-fluorobutyl]-8-bromo-4-{[(1,3-thiazol-2-yl)methyl]amino}-3,6-dithia-2-azabicyclo[3.3.0]octa-1,4,7-triene], for which the half-inhibitory concentration (IC50) (in assay [1]; with total ATXN3 protein) was 0.501 to 5 µM throughout.

For `C[C@H](N)C(F)(F)c1sc2c(NCc3ccco3)snc2c1Cl` [Compound 110, 7-[(S)-2-amino-1,1-difluoropropyl]-8-chloro-4-(furfurylamino)-3,6-dithia-2-azabicyclo[3.3.0]octa-1,4,7-triene], the half-inhibitory concentration (IC50) (in assay [1]; in the assay on total ATXN3 protein) was 0.501 to 5 µM in each case.

As for `N[C@H](Cc1sc2c(NCc3ccco3)snc2c1Br)C(F)F` [Compound 111, 7-[(R)-2-amino-3,3-difluoropropyl]-8-bromo-4-(furfurylamino)-3,6-dithia-2-azabicyclo[3.3.0]octa-1,4,7-triene], the half-inhibitory concentration (IC50) (in assay [1]; in the assay on total ATXN3 protein) was 0.501 to 5 µM throughout.

In the case of `Brc1csc2c(NCc3cccs3)snc12` [Compound 113, (thenyl)(8-bromo-3,6-dithia-2-azabicyclo[3.3.0]octa-1,4,7-trien-4-yl)amine], the IC50 (in assay [1]; in the assay on total ATXN3 protein) was 10 to 40 µM throughout.

`COC(c1sc2c(NCc3cccs3)snc2c1Br)[C@H](C)N` (stereo partly drawn) [Compound 114, 5-[(2S)-2-amino-1-methoxypropyl]-6-bromo-N-(thiophen-2-ylmethyl)thieno[3,2-c][1,2]thiazol-3-amine]: the IC50 (in assay [1]; in the assay with total ATXN3 protein) was 10 to 40 µM in each case.

Turning to `C[C@H](N)Cc1sc2c(NCc3cccs3)snc2c1-c1ccccc1` [Compound 128, 7-[(S)-2-aminopropyl]-8-phenyl-4-thenylamino-3,6-dithia-2-azabicyclo[3.3.0]octa-1,4,7-triene], the half-inhibitory concentration (IC50) (in assay [1]; in the assay with total ATXN3 protein) was 10 to 40 µM each time.

Values taken from patent US20250340570A1, “COMPOSITIONS USEFUL FOR MODULATING SPLICING” (Skyhawk Therapeutics, Inc., priority 2022, published 2025).
